What was measured:
C57BL/6 mice [1] = experiment: In vivo expression level of Luciferase-mRNA delivered by intravenous injection (bioluminescence imaging); settings: mRNA-loaded nanoparticles, intravenous (tail vein), 5 μg Luciferase-mRNA, 6 hours
Outline: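 Lipid nanoparticles carrying 5 μg Luciferase-mRNA given by tail-vein injection to 6-8-week-old C57BL/6 mice. At 6 h, 3 mg D-luciferin i.p. in PBS; bioluminescence imaged 10 min later as the expression read-out.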

C57BL/6 mice [2] = experiment: In vivo expression level of Luciferase-mRNA delivered by intramuscular injection (bioluminescence imaging); settings: mRNA-loaded nanoparticles, intramuscular (leg muscle), 5 μg Luciferase-mRNA, 6 hours
Experimental: Luciferase-mRNA was used as an mRNA model; and the cationic lipid analogues of Examples 1-5 were used to prepare drug-loaded nanoparticles according to the method of Example 6.
100 μL of nanoparticles containing 5 μg Luciferase-mRNA or the drug-loaded nanoparticles prepared above were injected into the leg muscles of 6-8 week-old C57BL/6 mice, and 200 μL of 1×PBS solution containing 3 mg D-Luciferin potassium salt was intraperitoneally injected into the mice 6 hours later. After waiting for 10 minutes, an in vivo expression level of the mRNA was evaluated by bioluminescence imaging.

Compound | Fluorescence intensity of spleen (C57BL/6 mice [1]; compounds of Example 2) | Local fluorescence intensity (C57BL/6 mice [2]; compounds of Example 2) | Fluorescence intensity of spleen (C57BL/6 mice [1]; compounds of Example 3) | Local fluorescence intensity (C57BL/6 mice [2]; compounds of Example 3)
CCCCCCCC/C=C\CCCCCCCC(=O)N(CCC)C(C(=O)NCCN(C)CCNC(=O)C(C(C)C)N(CCC)C(=O)CCCCCCC/C=C\CCCCCCCC)C(C)C (stereo not drawn) [A1I4R21C18-1] | 2.76E+05 | 2.26E+07 | – | –
CCCCC/C=C\C/C=C\CCCCCCCC(=O)N(CCC)C(C(=O)NCCN(C)CCNC(=O)C(C(C)C)N(CCC)C(=O)CCCCCCC/C=C\C/C=C\CCCCC)C(C)C (stereo not drawn) [A1I4R21C18-2] | 6.62E+05 | 3.17E+05 | – | –
CCCCCCCC/C=C\CCCCCCCC(=O)N(CCO)C(C(=O)NCCN(C)CCNC(=O)C(C(C)C)N(CCO)C(=O)CCCCCCC/C=C\CCCCCCCC)C(C)C (stereo not drawn) [A1I4R22C18-1] | 3.18E+05 | 2.86E+04 | – | –
CCCCCCCC/C=C\CCCCCCCC(=O)N(CCOC)C(C(=O)NCCN(C)CCNC(=O)C(C(C)C)N(CCOC)C(=O)CCCCCCC/C=C\CCCCCCCC)C(C)C (stereo not drawn) [A1I4R23C18-1] | 3.11E+05 | 1.77E+05 | – | –
CCCCC/C=C\C/C=C\CCCCCCCC(=O)N(CCOC)C(C(=O)NCCN(C)CCNC(=O)C(C(C)C)N(CCOC)C(=O)CCCCCCC/C=C\C/C=C\CCCCC)C(C)C (stereo not drawn) [A1I4R23C18-2] | 9.64E+05 | 8.72E+05 | – | –
CCCCCCCCCCCCCCCCCC(=O)N(CCOC)C(C(=O)NCCN(C)CCNC(=O)C(C(C)C)N(CCOC)C(=O)CCCCCCCCCCCCCCCCC)C(C)C (stereo not drawn) [A1I4R23C18] | 1.51E+05 | 7.53E+04 | – | –
CCCCCCCCCCCCCC(=O)N(CCO)C(C(=O)NCCN(CCNC(=O)C(C(C)C)N(CCO)C(=O)CCCCCCCCCCCCC)CCNC(=O)C(C(C)C)N(CCO)C(=O)CCCCCCCCCCCCC)C(C)C (stereo not drawn) [A1I5R22C14] | – | – | 1.20E+06 | 1.08E+05
CCCCCCCCSSCCC(=O)N(CCO)C(C(=O)NCCN(CCNC(=O)C(C(C)C)N(CCO)C(=O)CCSSCCCCCCCC)CCNC(=O)C(C(C)C)N(CCO)C(=O)CCSSCCCCCCCC)C(C)C (stereo not drawn) [A1I5R22S13] | – | – | 1.60E+06 | 5.74E+05
CCCCCCCCCCSSCCC(=O)N(C1CCCCCC1)C(C(=O)NCCN(CCNC(=O)C(C(C)C)N(C(=O)CCSSCCCCCCCCCC)C1CCCCCC1)CCNC(=O)C(C(C)C)N(C(=O)CCSSCCCCCCCCCC)C1CCCCCC1)C(C)C (stereo not drawn) [A1I5R26S15] | – | – | 1.30E+05 | 9.90E+05
CCCCCCCCCCSSCCC(=O)N(CCCCCO)C(C(=O)NCCN(CCNC(=O)C(C(C)C)N(CCCCCO)C(=O)CCSSCCCCCCCCCC)CCNC(=O)C(C(C)C)N(CCCCCO)C(=O)CCSSCCCCCCCCCC)C(C)C (stereo not drawn) [A1I5R27S15] | – | – | 7.96E+05 | 3.57E+05
CCCCCCCCCCSSCCC(=O)N(CCCCCCO)C(C(=O)NCCN(CCNC(=O)C(C(C)C)N(CCCCCCO)C(=O)CCSSCCCCCCCCCC)CCNC(=O)C(C(C)C)N(CCCCCCO)C(=O)CCSSCCCCCCCCCC)C(C)C (stereo not drawn) [A1I5R28S15] | – | – | 3.31E+06 | 6.01E+05
CCCCCCCCCCSSCCC(=O)N(C(C(=O)NCCN(CCNC(=O)C(C(C)C)N(C(=O)CCSSCCCCCCCCCC)C(C)(CO)CO)CCNC(=O)C(C(C)C)N(C(=O)CCSSCCCCCCCCCC)C(C)(CO)CO)C(C)C)C(C)(CO)CO (stereo not drawn) [A1I5R29S15] | – | – | 3.13E+05 | 7.63E+04
CCCCCCCCCCSSCCC(=O)N(C(C(=O)NCCN(CCNC(=O)C(C(C)C)N(C(=O)CCSSCCCCCCCCCC)C(CO)(CO)CO)CCNC(=O)C(C(C)C)N(C(=O)CCSSCCCCCCCCCC)C(CO)(CO)CO)C(C)C)C(CO)(CO)CO (stereo not drawn) [A1I5R30S15] | – | – | 6.31E+04 | 7.77E+04
CCCCCCCCCCSSCCC(=O)N(CCCOCC)C(C(=O)NCCN(CCNC(=O)C(C(C)C)N(CCCOCC)C(=O)CCSSCCCCCCCCCC)CCNC(=O)C(C(C)C)N(CCCOCC)C(=O)CCSSCCCCCCCCCC)C(C)C (stereo not drawn) [A1I5R31S15] | – | – | 6.13E+05 | 2.94E+06
CCCCCCCCCCSSCCC(=O)N(CCCOC(C)C)C(C(=O)NCCN(CCNC(=O)C(C(C)C)N(CCCOC(C)C)C(=O)CCSSCCCCCCCCCC)CCNC(=O)C(C(C)C)N(CCCOC(C)C)C(=O)CCSSCCCCCCCCCC)C(C)C (stereo not drawn) [A1I5R32S15] | – | – | 2.48E+05 | 1.18E+06
CCCCCCCCCCSSCCC(=O)N(C(CC)COC)C(C(=O)NCCN(CCNC(=O)C(C(C)C)N(C(=O)CCSSCCCCCCCCCC)C(CC)COC)CCNC(=O)C(C(C)C)N(C(=O)CCSSCCCCCCCCCC)C(CC)COC)C(C)C (stereo not drawn) [A1I5R33S15] | – | – | 2.33E+05 | 1.52E+06
CCCCCCCCCCSSCCC(=O)N(CC(OC)OC)C(C(=O)NCCN(CCNC(=O)C(C(C)C)N(CC(OC)OC)C(=O)CCSSCCCCCCCCCC)CCNC(=O)C(C(C)C)N(CC(OC)OC)C(=O)CCSSCCCCCCCCCC)C(C)C (stereo not drawn) [A1I5R34S15] | – | – | 2.84E+05 | 1.24E+06
CCCCCCCCCCSSCCC(=O)N(CC1CCCO1)C(C(=O)NCCN(CCNC(=O)C(C(C)C)N(CC1CCCO1)C(=O)CCSSCCCCCCCCCC)CCNC(=O)C(C(C)C)N(CC1CCCO1)C(=O)CCSSCCCCCCCCCC)C(C)C (stereo not drawn) [A1I5R35S15] | – | – | 3.21E+05 | 2.62E+06
CCCCCCCCCCSSCCC(=O)N(CCOCCO)C(C(=O)NCCN(CCNC(=O)C(C(C)C)N(CCOCCO)C(=O)CCSSCCCCCCCCCC)CCNC(=O)C(C(C)C)N(CCOCCO)C(=O)CCSSCCCCCCCCCC)C(C)C (stereo not drawn) [A1I5R36S15] | – | – | 3.27E+06 | 8.27E+04
CCCCCCCCCCSSCCC(=O)N(CC(=O)OCC)C(C(=O)NCCN(CCNC(=O)C(C(C)C)N(CC(=O)OCC)C(=O)CCSSCCCCCCCCCC)CCNC(=O)C(C(C)C)N(CC(=O)OCC)C(=O)CCSSCCCCCCCCCC)C(C)C (stereo not drawn) [A1I5R37S15] | – | – | 1.61E+05 | 1.26E+06
CCCCCCCCCCSSCCC(=O)N(CCCC(=O)OC)C(C(=O)NCCN(CCNC(=O)C(C(C)C)N(CCCC(=O)OC)C(=O)CCSSCCCCCCCCCC)CCNC(=O)C(C(C)C)N(CCCC(=O)OC)C(=O)CCSSCCCCCCCCCC)C(C)C (stereo not drawn) [A1I5R38S15] | – | – | 1.14E+05 | 4.72E+04
CCCCCCCCCCSSCCC(=O)N(CCCC(=O)OCC)C(C(=O)NCCN(CCNC(=O)C(C(C)C)N(CCCC(=O)OCC)C(=O)CCSSCCCCCCCCCC)CCNC(=O)C(C(C)C)N(CCCC(=O)OCC)C(=O)CCSSCCCCCCCCCC)C(C)C (stereo not drawn) [A1I5R39S15] | – | – | 3.88E+04 | 2.15E+04
CCCCCCCCCCSSCCC(=O)N(C(C)C(=O)OC)C(C(=O)NCCN(CCNC(=O)C(C(C)C)N(C(=O)CCSSCCCCCCCCCC)C(C)C(=O)OC)CCNC(=O)C(C(C)C)N(C(=O)CCSSCCCCCCCCCC)C(C)C(=O)OC)C(C)C (stereo not drawn) [A1I5R40S15] | – | – | 1.39E+04 | 3.86E+05
CCCCCCCCCCSSCCC(=O)N(CS(=O)(=O)O)C(C(=O)NCCN(CCNC(=O)C(C(C)C)N(CS(=O)(=O)O)C(=O)CCSSCCCCCCCCCC)CCNC(=O)C(C(C)C)N(CS(=O)(=O)O)C(=O)CCSSCCCCCCCCCC)C(C)C (stereo not drawn) [A1I5R41S15] | – | – | 4.22E+05 | 1.81E+05
